Experimental data as given in US20120046329A1, “MODULATORS OF NOD1 AND NOD2 SIGNALING, METHODS OF IDENTIFYING MODULATORS OF NOD1 AND NOD2 SIGNALING, AND USES THEREOF” (Sanford-Burnham Medical Research Institute, priority 2010, published 2012).

Experiments:
[1] = In vivo RACE assay (pharmacokinetics, IP dosing); design: species or system wild type mice; conditions: mice
Excerpt: In vivo RACE assay data was obtained for compound 1:
in conjunction with quantitative bioanalytical analysis to test its pharmacokinetics in wild type mice. […]

NOD2 [2] = molecular target: T1, NOD2 (Homo sapiens, UniProt Q9HC29); test: MDP-stimulated (NOD2-dependent) NF-κB reporter assay; conditions: reporter cell lines with low and overexpressed NOD2
T1 sequence (Q9HC29 whole entry): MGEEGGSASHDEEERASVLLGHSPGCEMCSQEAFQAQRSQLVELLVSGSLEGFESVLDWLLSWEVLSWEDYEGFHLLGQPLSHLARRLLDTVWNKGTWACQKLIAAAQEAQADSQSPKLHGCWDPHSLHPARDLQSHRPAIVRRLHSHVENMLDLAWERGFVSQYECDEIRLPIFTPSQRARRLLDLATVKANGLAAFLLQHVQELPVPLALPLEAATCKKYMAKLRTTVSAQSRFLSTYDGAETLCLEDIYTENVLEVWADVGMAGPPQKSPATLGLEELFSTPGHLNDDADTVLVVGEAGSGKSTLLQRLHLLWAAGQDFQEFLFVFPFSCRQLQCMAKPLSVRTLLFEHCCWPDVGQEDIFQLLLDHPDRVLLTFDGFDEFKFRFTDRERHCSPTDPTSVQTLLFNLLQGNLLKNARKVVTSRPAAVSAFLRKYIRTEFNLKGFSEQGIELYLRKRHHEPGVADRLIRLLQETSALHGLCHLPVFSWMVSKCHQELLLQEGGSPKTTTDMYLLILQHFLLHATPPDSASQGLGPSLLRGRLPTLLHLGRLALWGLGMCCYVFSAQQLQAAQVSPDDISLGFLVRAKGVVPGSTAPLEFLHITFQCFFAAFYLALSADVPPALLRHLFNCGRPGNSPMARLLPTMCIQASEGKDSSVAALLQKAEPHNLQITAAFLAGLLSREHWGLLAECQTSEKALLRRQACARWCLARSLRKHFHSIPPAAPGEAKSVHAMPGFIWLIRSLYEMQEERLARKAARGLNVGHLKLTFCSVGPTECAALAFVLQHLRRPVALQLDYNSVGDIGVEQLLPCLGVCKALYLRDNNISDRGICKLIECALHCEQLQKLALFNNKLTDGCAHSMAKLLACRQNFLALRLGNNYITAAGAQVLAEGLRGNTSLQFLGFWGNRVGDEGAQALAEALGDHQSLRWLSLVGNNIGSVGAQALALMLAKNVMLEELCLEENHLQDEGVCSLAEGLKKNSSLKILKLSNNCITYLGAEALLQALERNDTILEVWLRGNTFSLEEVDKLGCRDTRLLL

inflammasome = test: IL-1β secretion ELISA in RAW264.7 cells, inflammasome activators; format: cell-based, mouse; conditions: RAW264.7, 5 μM
Excerpt: Supernatants were collected after either 2 hrs (Salmonella infection) or 4 hrs (all others) and IL-1β levels were quantified by ELISA (mean+SD; n=3).
Many NLRs form complexes with caspase-1, creating so-called “inflammasomes” responsible for proteolytic processing of inflammatory cytokine interleukin 1-beta (IL-1β). […] (FIGS. 1D and 1G), indicating a lack of promiscuity towards other NLRs.
ELISA: For IL-8 ELISA, MCF7 cells stably expressing His6-FLAG-tagged NOD1 or NOD2 were produced by lentivirus infection. Cells were cultured up to 90% confluency. Assays were initiated using 5,000 cells per well (in 100 μl volume) of a 96-well transparent culture plate. […] Supernatants were collected into a new 96-well plate and stored at −80° C. IL-8 levels were measured using a human IL-8 ELISA (BD OptEIA™ Human IL-8 ELISA Set, BD Biosciences). For IL-1β ELISA, assays were initiated using 50,000 RAW264.7 cells per well (in 100 μl of Opti-Mem medium, Invitrogen) of a 96-well transparent culture plate. Cell treatments were performed as indicated. IL-1β levels were measured using mouse IL-1 beta ELISA Ready-Set-Go!™ Kit (E-Biosciences).

NOD2 [3] = molecular target: T1, NOD2; test: MDP-induced IL-8 secretion in MCF-7/NOD2 cells; conditions: MCF-7 cells, ELISA
[4] = tested on: noncanonical NF-κB activation induced by BAFF; test: NF-κB luciferase in 697 pre-B leukemia cells, BAFF; conditions: 697 cells, 10 μM
Method: (§1) Luciferase activity was measured 24 h later (mean±SD; n=3).
(§2) Gene reporter assays: HEK293T or 697 cells containing integrated 5×NFκB-driven luciferase reporter gene were seeded into 96-well plates at 10^4 to 10^5 cells per well, and treated with respective inducers for 16 to 24 hours. […] The next day, cells were transfected with 50 ng pNF-κB-LUC (Clontech) and 5 ng Renilla luciferase gene driven by a constitutive TK promoter (pRL-TK; Promega) along with indicated plasmids. After 24 h of transfection in some experiments, cells were stimulated with various agents for 24 h or directly lysed and luciferase activities were assayed using the Dual Luciferase kit (Promega). The results for firefly luciferase activity were normalized to renilla luciferase activity. […] The mean results were obtained from triplicates.

[5] = molecular target: NOD1 association with RIP2, Bid, or SGT-1 (Homo sapiens, UniProt Q9Y239); test: Co-immunoprecipitation of NOD1 with interacting proteins, HEK 293T; format: cell-based; conditions: over-expressing conditions, 5 μM
NOD1 association with RIP2, Bid, or SGT-1, sequence (Q9Y239 whole entry): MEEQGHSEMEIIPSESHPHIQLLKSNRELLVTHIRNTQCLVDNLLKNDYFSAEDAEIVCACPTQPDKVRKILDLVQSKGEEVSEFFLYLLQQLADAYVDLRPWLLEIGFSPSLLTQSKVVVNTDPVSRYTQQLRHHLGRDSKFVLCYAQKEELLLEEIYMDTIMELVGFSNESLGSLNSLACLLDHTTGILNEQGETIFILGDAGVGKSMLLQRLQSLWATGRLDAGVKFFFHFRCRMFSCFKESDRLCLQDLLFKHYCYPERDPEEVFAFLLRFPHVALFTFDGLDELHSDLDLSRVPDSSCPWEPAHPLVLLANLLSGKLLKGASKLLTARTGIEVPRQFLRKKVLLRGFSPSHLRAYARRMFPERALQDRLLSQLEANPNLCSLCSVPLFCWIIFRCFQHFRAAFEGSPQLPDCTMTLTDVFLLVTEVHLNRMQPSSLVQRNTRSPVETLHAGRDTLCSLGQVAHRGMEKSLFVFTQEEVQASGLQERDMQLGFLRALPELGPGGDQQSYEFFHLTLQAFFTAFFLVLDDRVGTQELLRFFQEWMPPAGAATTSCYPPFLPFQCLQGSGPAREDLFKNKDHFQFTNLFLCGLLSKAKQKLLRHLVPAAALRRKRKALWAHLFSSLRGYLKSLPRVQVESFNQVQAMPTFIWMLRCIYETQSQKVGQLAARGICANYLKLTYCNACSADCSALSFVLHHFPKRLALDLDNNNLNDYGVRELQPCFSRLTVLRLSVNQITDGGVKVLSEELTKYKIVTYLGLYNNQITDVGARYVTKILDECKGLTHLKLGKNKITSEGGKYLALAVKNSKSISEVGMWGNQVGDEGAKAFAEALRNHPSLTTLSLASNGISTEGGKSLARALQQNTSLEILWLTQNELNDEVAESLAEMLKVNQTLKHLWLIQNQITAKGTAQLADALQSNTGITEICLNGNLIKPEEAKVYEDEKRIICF
NOD1 association with RIP2, Bid, or SGT-1, sequence (O43353 whole entry partner): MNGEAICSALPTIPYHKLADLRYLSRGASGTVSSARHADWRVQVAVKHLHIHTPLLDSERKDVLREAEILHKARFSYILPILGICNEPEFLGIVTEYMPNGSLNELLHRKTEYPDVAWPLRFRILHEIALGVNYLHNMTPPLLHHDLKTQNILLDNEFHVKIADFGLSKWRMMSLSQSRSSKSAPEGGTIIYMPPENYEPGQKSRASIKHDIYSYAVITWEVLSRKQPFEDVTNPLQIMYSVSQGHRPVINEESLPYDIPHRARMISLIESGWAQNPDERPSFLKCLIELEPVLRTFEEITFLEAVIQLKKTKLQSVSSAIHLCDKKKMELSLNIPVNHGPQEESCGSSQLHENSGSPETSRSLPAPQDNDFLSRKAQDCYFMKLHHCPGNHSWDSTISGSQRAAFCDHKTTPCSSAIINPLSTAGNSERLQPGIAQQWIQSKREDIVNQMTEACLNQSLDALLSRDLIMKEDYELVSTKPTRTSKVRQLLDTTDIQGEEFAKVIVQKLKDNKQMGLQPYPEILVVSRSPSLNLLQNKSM

[6] = Microsomal stability, human; format: in vitro ADME
Plasma stability, human = format: in vitro ADME
TLR9 = molecular target: T2, TLR9 (Homo sapiens, UniProt Q9NR96); test: NF-κB luciferase in 697 pre-B leukemia cells, TLR9 ligand CpG DNA; conditions: 697 cells, 10 μM
T2 sequence (Q9NR96 26-1032): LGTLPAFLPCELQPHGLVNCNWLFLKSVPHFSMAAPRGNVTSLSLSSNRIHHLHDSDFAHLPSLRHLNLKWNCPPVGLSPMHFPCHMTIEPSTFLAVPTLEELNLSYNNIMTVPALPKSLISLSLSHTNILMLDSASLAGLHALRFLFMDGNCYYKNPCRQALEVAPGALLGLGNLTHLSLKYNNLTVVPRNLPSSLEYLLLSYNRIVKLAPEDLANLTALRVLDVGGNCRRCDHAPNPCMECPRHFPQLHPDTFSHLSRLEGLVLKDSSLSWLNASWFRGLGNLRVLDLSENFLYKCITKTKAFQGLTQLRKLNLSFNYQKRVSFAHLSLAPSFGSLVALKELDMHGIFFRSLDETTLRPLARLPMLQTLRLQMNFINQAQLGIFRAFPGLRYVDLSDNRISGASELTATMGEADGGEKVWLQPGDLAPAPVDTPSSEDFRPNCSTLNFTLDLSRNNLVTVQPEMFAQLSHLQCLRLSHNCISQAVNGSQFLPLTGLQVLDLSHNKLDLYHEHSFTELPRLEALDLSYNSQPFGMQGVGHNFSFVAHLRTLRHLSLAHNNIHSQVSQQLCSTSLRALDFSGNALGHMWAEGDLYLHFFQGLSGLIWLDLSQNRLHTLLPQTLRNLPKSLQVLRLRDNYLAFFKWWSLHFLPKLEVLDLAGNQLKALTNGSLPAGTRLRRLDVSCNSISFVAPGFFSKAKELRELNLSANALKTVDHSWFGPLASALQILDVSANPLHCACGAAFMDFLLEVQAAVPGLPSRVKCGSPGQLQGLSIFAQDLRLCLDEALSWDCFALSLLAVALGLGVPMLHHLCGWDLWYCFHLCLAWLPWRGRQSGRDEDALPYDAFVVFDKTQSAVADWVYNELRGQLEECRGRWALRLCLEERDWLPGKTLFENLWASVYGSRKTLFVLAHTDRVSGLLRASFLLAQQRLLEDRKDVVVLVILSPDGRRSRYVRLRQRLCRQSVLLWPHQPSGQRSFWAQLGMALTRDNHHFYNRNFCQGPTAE
Method: as §1, §2

TLR1, 2, 4, 5, 6 and 8 = test: NF-κB SEAP reporter in PMA-differentiated THP.1 macrophages, TLR agonists; format: cell-based, human; conditions: 5 μM, 24 h
Method: After 24 h incubation, SLAP activity in culture supernatants was measured, expressing data as percentage relative to treatment with inducer only (indicated as 100%; mean±SEM, n=2).
Human myelomonocytic THP-1 cells containing a NF-κB/AP-1-inducible reporter gene encoding secreted alkaline phosphatase (SEAP) were employed for convenient monitoring of NF-κB activity.
THP.1-Blue™ monocytic cells (Invivogen), stably containing NF-κB-driven secreted alkaline phosphatase reporter (SEAP), were plated and further treated as indicated. Stimulation was accessed colorimetrically measuring SEAP secreted into culture supernatants (QUANTI-Blue'm, Invivogen), using SpectraMax 190 plate reader (Molecular Devices).

[7] = tested on: IKKγ/NEMO, MYD88, FLIP, CARD6, APAF1 or NLRC4 over-expression; test: Gene transfection NF-κB luciferase, HEK 293T; format: cell-based, human
[8] = tested on: interferon response stimuli (RIG-I/MDA-5, IRF3); test: ISRE-driven luciferase reporter in HEK293T, poly(I:C), poly(dA:dT), Sendai virus; conditions: 5 μM
Plasma stability, mouse = format: in vitro ADME

With Cc1ccc(S(=O)(=O)n2c(N)nc3ccccc32)cc1 [Compound 1] the Tolerability ([1]; IP) was “well tolerated”, the “Concentration (uM) 20 min” value ([1]; IP 15 mg/kg) was 1.58 ± 0.06 µM and the “Concentration (uM) 120 min” value ([1]; IP 15 mg/kg) was 0.12 ± 0.05 µM. The “Compound exposure (in words)” value ([1]; IP 30 mg/kg and 15 mg/kg, T=20 min) was “significant compound exposure”, the “Concentration (uM) 20 min” value ([1]; IP 30 mg/kg) was 5.24 ± 0.62 µM and the “Concentration (uM) 120 min” value ([1]; IP 30 mg/kg) was 0.54 ± 0.04 µM. For the same molecule, the “Inhibition of MDP stimulated (NOD2-dependent) signaling” value (NOD2 [2]) was “not inhibiting”, the “Effect on IL-1β secretion induced by inflammasome activators” value (inflammasome) was “did not inhibit” and the “Activity on MDP induced (NOD2) mediated IL-8 release (in words)” value (NOD2 [3]) was “inactivity”. For the same molecule, the “Effect on NF-κB activation induced by BAFF” value [4] was “not inhibited”, the “Interference with NOD1 association with RIP2, Bid, or SGT-1” value [5] was “did not interfere” and the “Microsomal Stability (% Remaining at 1 hr)” value ([6]; Human, 1 hr) was 41.78 % Remaining. For the same molecule, the “Stability in microsomes (in words)” value ([6]; human) was “moderate”, the “Plasma Stability (% Remaining at 3 hrs)” value (Plasma stability, human; Human, 3 hrs) was 100/100 % Remaining and the “Stability in plasma (in words)” value (Plasma stability, human; human) was “high”. For the same molecule, the “Effect on NF-κB activity induced by TLR9 ligand CpG DNA” value (TLR9) was “did not inhibit”, the “Effect on NF-κB-inducible SEAP activity induced by TLR agonists” value (TLR1, 2, 4, 5, 6 and 8) was “No inhibitory effects” and the Permeability (Permeability; pH 5.0) was 0.000491 cm/s. For the same molecule, the Permeability (Permeability; pH 6.2) was 0.000562 cm/s, the Permeability (Permeability; pH 7.4) was 0.000382 cm/s and the “Permeability (in words)” value (Permeability; three pH levels) was “high”. For the same molecule, the “Impact on NF-κB in cells over-expressing IKKγ/NEMO, MYD88, FLIP, CARD6, APAF1 or NLRC4” value [7] was “No significant impact”, the “Effect on ISRE-driven reporter gene activity induced by other interferon response stimuli” value [8] was “no inhibition” and the “Plasma Stability (% Remaining at 3 hrs)” value (Plasma stability, mouse; Mouse, 3 hrs) was 100/100 % Remaining. For the same molecule, the “Stability in plasma (in words)” value (Plasma stability, mouse; mouse) was “high”.
